Reference: article PMC4389225, “Triaminopyrimidine is a fast-killing and long-acting antimalarial clinical candidate” (Nature Communications, 2015)
pIC50: −log10 of the molar value. ≈ marks a conversion by molar mass, not a printed value.

Tests used:
[1] = Solubility
[2] = Blood-plasma ratio, rat; format: in vitro ADME
Description: Supplementary Note 5: Prediction of human clearance for compound 12 by IVIVE.
Human clearance (CL) was predicted by in vitro-in vivo extrapolation (IVIVE) from the in vitro Clint in human hepatocytes6. In vitro Clint was scaled to in vivo Clint as follows:
Clint in vivo = Clint in vitro * scaling factors * fublood/fuinc
The liver weights used for scaling were 40, 32 and 24 g/kg body weight in rat, dog and human respectively. Hepatocellularity used for scaling was 163, 169 and 120 (X 106) cells/g liver in rat, dog and human respectively. Free fraction in blood was calculated as fuplasma /Blood:Plasma (BP) ratio. BP ratio and free fraction in the hepatocyte incubation mix, fuinc, were measured in vitro. Slope and intercept from the linear regression analysis of IVIVC for a large number of AstraZeneca compounds was applied for final correction in the scaled in vivo Clint. A well stirred model was used for CL prediction.
Where Qh is the liver blood flow. The values of Qh in rat, dog and human are 72, 55 and 20 mL.min-1kg-1 in rat, dog and human, respectively. In vitro parameters, observed in vivo CL and predicted CL are shown in supplementary Table 10. […]
(also on this page, place not known: in vivo in vivo CLintQ CLintQCL Predicted predicted predicted h h + ×=)
(1 picture or pasted object on this page, not shown here)

[3] = system: Dd2-6R F4 G7; assay: SYBR green growth assay, Dd2-6R F4 G7; conditions: Plasmodium falciparum
Method: Assays were carried out in 384-well format with three technical replicates within an assay day and biological replicates carried out on three different assay days to assign a final EC50.
The drug was then washed off and the parasites were allowed to recover in normal growth media.

[4] = Plasma protein binding, rat
[5] = system: Dd2 DHODH DSM265; assay: [3H]-hypoxanthine incorporation assay, Dd2 DHODH DSM265 resistant; format: cell-based; conditions: Plasmodium falciparum
Method: Supplementary Table 3: Compound 9 and 12 retain their activity against Pf strains harbouring mutations to novel antimalarial agents in clinical development. Compound 9 and 12 were tested for their antiplasmodial activity against a panel of Pf strains known to harbour mutations conferring resistance to novel agents under clinical development. Parasite growth inhibition is measured using the [3H]-hypoxanthine incorporation assay. IC50s are established for each strain (n ≥2) and compared to the IC50 of Dd2 (standard pan-resistant […]

Compound | solubility [1] | B:P ratio [2] | pIC50 [3] | fraction unbound [4] | pIC50 [5]
Cc1cc(Nc2ncc(N3CCN(C)CC3)c(N3CCCC3)n2)ccn1 [compound 2] | 830 µM (≈ 293 µg/mL) | – | – | – | –
Cc1nc(Nc2ncc(N3CCN(C)[C@H](C)C3)c(Nc3cc(C)n(C)n3)n2)cc(C2CC2)c1F [compound 12, (R)-N2-(4-cyclopropyl-5-fluoro-6-methylpyridin-2-yl)-N4-(1,5-dimethyl-1H-pyrazol-3-yl)-5-(3,4-dimethylpiperazin-1-yl)pyrimidine-2,4-diamine] | – | 1.65 | 7.04 | 0.04 | 8.19
